The GI50 is the concentration that inhibits growth by half.

The source of these data is ChEMBL document CHEMBL1201862, “PubChem BioAssay data set” (2004).

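Values below derive from 48-hour exposures of cells grown in 96-well plates, with endpoints linearly interpolated between the two concentrations bracketing the appropriate inhibition level. At the GI50, growth is halved.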 Active and inactive are the calls of the source. No stated cut-off is given here; in the data, active = GI50 up to about 1.1 µM and inactive = higher.

Some test systems named below: ACHN; HCT-116; HCT-15; HL-60; KM12; LOX IMVI; MCF7; MDA-MB-231; Malme-3M; NCI-H460; OVCAR-3; RPMI-8226; SF-295; SK-MEL-28; SR; SW-620; U-251; UACC-257; HOP-62; NCI-H23.
Test in all cases: DTP human tumour cell line panel, 48 h

On to `N#Cc1c(N)c2c(c(-c3ccccc3)c1-c1ccccc1)C(=O)N(NC(=O)c1ccccc1)C2=O`, for which the GI50 with ACHN was > 100 µM (inactive); in the experiment on HCT-116, 19.6 µM (inactive); with HCT-15, more than 100 µM; with HL-60, 58.2 µM (inactive); in the experiment with KM12, > 100 µM (inactive); with LOX IMVI it was > 100 µM (inactive). The GI50 was 61.2 µM (inactive) in the experiment with MCF7; > 100 µM (inactive) with MDA-MB-231; > 100 µM (inactive) in the experiment on Malme-3M; 55.1 µM (inactive) in the experiment with NCI-H460; 31 µM (inactive) in the experiment with OVCAR-3; 31.2 µM (inactive) in the experiment on RPMI-8226. For the same compound, the GI50 with SF-295 was > 100 µM (inactive); in the experiment with SK-MEL-28, > 100 µM (inactive); with SR, 44.5 µM (inactive); in the experiment on SW-620, > 100 µM (inactive); in the experiment with U-251 it was > 100 µM (inactive); with UACC-257, > 100 µM (inactive).
In the case of `CCCCCCCCCCCCCCCCOP(=O)(O)OP(=O)(O)OCC1OC(n2cnc3c(N)ncnc32)C(O)C1O` (stereo unspecified), the GI50 with ACHN was > 100 µM (inactive); with HCT-116, 45.5 µM (inactive); with HCT-15, more than 100 µM; with HL-60 it was 66.7 µM (inactive); with HOP-62 it was 30.5 µM (inactive); in the experiment on KM12 it was > 100 µM (inactive). Further, the GI50 with LOX IMVI was > 100 µM (inactive); with MCF7, 56 µM (inactive); with MDA-MB-231, > 100 µM (inactive); with Malme-3M, 43.9 µM (inactive); with NCI-H23, 87.1 µM (inactive); with NCI-H460, 36.1 µM (inactive). The GI50 is > 100 µM (inactive) with OVCAR-3; 24.5 µM (inactive) in the experiment with SK-MEL-28; 31.8 µM (inactive) in the experiment with SR; > 100 µM (inactive) in the experiment on SW-620; 46 µM (inactive) with U-251; > 100 µM (inactive) with UACC-257.
For the compound `COC(=O)/C=C/c1ccc2c(c1)CC1(C2)Cc2cc3c(cc2C1=O)CCC3` (stereo unspecified), the GI50 is 39.5 µM (inactive) in the experiment on ACHN; 15.7 µM (inactive) in the experiment with HCT-116; more than 100 µM in the experiment with HCT-15; 7.98 µM (inactive) in the experiment on HL-60; 56.8 µM (inactive) in the experiment with KM12; > 100 µM (inactive) with LOX IMVI. Further, the GI50 was > 100 µM (inactive) in the experiment on MCF7; 39 µM (inactive) in the experiment on MDA-MB-231; 42 µM (inactive) with Malme-3M; 80.9 µM (inactive) in the experiment with NCI-H460; 4.63 µM (inactive) in the experiment with OVCAR-3; 15 µM (inactive) in the experiment on RPMI-8226. The GI50 in the experiment with SF-295 is 34.1 µM (inactive); with SK-MEL-28, > 100 µM (inactive); in the experiment with SR it was 44.1 µM (inactive); with SW-620, > 100 µM (inactive); in the experiment on U-251, 26.5 µM (inactive); in the experiment with UACC-257, > 100 µM (inactive).
For `Cc1ccc(/C=C2\N=C(N3CCCCC3)NC2=O)cc1`, the GI50 in the experiment with ACHN was > 100 µM (inactive); in the experiment on HCT-116, > 100 µM (inactive); in the experiment on HCT-15, more than 100 µM; with HL-60, 71.1 µM (inactive); with HOP-62, > 100 µM (inactive); with KM12 it was > 100 µM (inactive). Further, the GI50 in the experiment on LOX IMVI is 94.4 µM (inactive); with MCF7 it was > 100 µM (inactive); in the experiment with MDA-MB-231 it was > 100 µM (inactive); with Malme-3M it was > 100 µM (inactive); with NCI-H23 it was > 100 µM (inactive); in the experiment on OVCAR-3, > 100 µM (inactive). For the same compound, the GI50 in the experiment with RPMI-8226 was 60.8 µM (inactive); with SF-295, > 100 µM (inactive); with SK-MEL-28, > 100 µM (inactive); in the experiment on SR it was > 100 µM (inactive); with SW-620, > 100 µM (inactive); in the experiment on U-251, > 100 µM (inactive). Moreover, the GI50 in the experiment on UACC-257 is > 100 µM (inactive).
On to `COc1cc(C)cc2c(-c3c(O)cc(O)c4c3C[C@H](C)N[C@H]4C)cc(-c3cc(-c4c(O)cc(O)c5c4C[C@H](C)N[C@H]5C)c4cc(C)cc(OC)c4c3O)c(O)c12`, for which the GI50 in the experiment on ACHN was > 100 µM (inactive); in the experiment with HCT-116, 54.1 µM (inactive); in the experiment on HCT-15, more than 100 µM; in the experiment with HL-60 it was > 100 µM (inactive); with HOP-62, 72.3 µM (inactive); in the experiment on KM12, 56.2 µM (inactive). Besides, the GI50 in the experiment on MCF7 is > 100 µM (inactive); with MDA-MB-231, > 100 µM (inactive); in the experiment on Malme-3M, > 100 µM (inactive); in the experiment with NCI-H23, > 100 µM (inactive); in the experiment with NCI-H460 it was 75.3 µM (inactive); in the experiment with OVCAR-3, > 100 µM (inactive). For the same compound, the GI50 was 83.4 µM (inactive) in the experiment with RPMI-8226; 66.4 µM (inactive) in the experiment on SF-295; > 100 µM (inactive) in the experiment with SK-MEL-28; > 100 µM (inactive) in the experiment on SR; > 100 µM (inactive) in the experiment with SW-620; > 100 µM (inactive) in the experiment on U-251. Besides, the GI50 in the experiment with UACC-257 was > 100 µM (inactive).
Take `COc1cc2c(/C=C3/C(=O)N(C)c4ccccc43)c(Cl)[nH]c2cc1C`: the concentration for 50% growth inhibition (GI50) in the experiment on ACHN is 0.51 µM (active); with HCT-116, 0.233 µM (active); in the experiment with HCT-15, 0.13 µM; in the experiment on HL-60 it was 0.069 µM (active); in the experiment with HOP-62 it was 0.286 µM (active); with KM12, 0.132 µM (active). For the same compound, the GI50 with LOX IMVI was 0.3 µM (active); in the experiment with MCF7, 0.0895 µM (active); in the experiment on MDA-MB-231, 0.36 µM (active); with NCI-H23, 0.203 µM (active); in the experiment on NCI-H460, 0.295 µM (active); in the experiment on OVCAR-3, 0.116 µM (active). Further, the GI50 in the experiment with RPMI-8226 is 0.249 µM (active); with SF-295, 0.0964 µM (active); in the experiment with SK-MEL-28 it was 8.38 µM (inactive); in the experiment with SR it was 0.274 µM (active); in the experiment on SW-620 it was 0.33 µM (active); in the experiment on U-251, 0.117 µM (active). Also, in the experiment on UACC-257, the GI50 is 0.169 µM (active).
As for `[N-]=[N+]=CC(=O)CCC(=O)N(c1ccccc1)c1ccccc1`, the GI50 in the experiment with ACHN was > 10 µM (inactive); in the experiment on HCT-116, > 10 µM (inactive); with HCT-15 it was more than 10 µM; in the experiment on HL-60, > 10 µM (inactive); in the experiment with HOP-62, > 10 µM (inactive); in the experiment on KM12 it was > 10 µM (inactive). The GI50 in the experiment with LOX IMVI, with MCF7, in the experiment on MDA-MB-231, in the experiment on Malme-3M, with NCI-H23 and in the experiment with NCI-H460 was > 10 µM (inactive) in each case. Moreover, the GI50 with OVCAR-3, in the experiment on SF-295, with SK-MEL-28, in the experiment on SR, in the experiment with SW-620 and with U-251 was > 10 µM (inactive) throughout. Besides, the GI50 in the experiment with UACC-257 was > 10 µM (inactive).
`COC1C(O)C(C)OC(O[C@H]2CC[C@@]3(C)C(CC[C@@H]4[C@@H]3CC[C@]3(C)[C@@H](C(C)OC5OC(CO)C(O)C(O)C5O)CC[C@]43O)C2)C1O` (stereo partly specified): the GI50 was > 25 µM (inactive) in the experiment with ACHN; > 25 µM (inactive) in the experiment with HCT-116; more than 25 µM in the experiment on HCT-15; > 25 µM (inactive) with HL-60; > 25 µM (inactive) in the experiment with HOP-62; > 25 µM (inactive) in the experiment on KM12. Further, the GI50 with LOX IMVI, in the experiment on MCF7, in the experiment on MDA-MB-231, in the experiment on NCI-H23, in the experiment on NCI-H460 and in the experiment on OVCAR-3 was > 25 µM (inactive) throughout. Moreover, the GI50 with RPMI-8226, with SF-295, in the experiment on SK-MEL-28, in the experiment on SR, in the experiment with SW-620 and with U-251 was > 25 µM (inactive) in each case. In addition, in the experiment with UACC-257, the GI50 is > 25 µM (inactive).
On to `Oc1nnnc2c1sc1ncccc12`, for which the GI50 in the experiment with ACHN is > 100 µM (inactive); in the experiment on HCT-116, > 100 µM (inactive); in the experiment on HCT-15, more than 100 µM; with HL-60, > 100 µM (inactive); in the experiment on HOP-62, > 100 µM (inactive); in the experiment on KM12, > 100 µM (inactive). Also, the GI50 was > 100 µM (inactive) in the experiment on LOX IMVI; > 100 µM (inactive) in the experiment on MCF7; 68.2 µM (inactive) with MDA-MB-231; > 100 µM (inactive) in the experiment on Malme-3M; > 100 µM (inactive) in the experiment on NCI-H23; > 100 µM (inactive) in the experiment on NCI-H460. Further, the GI50 is > 100 µM (inactive) in the experiment with OVCAR-3; > 100 µM (inactive) with SF-295; > 100 µM (inactive) with SK-MEL-28; 5.7 µM (inactive) in the experiment on SR; > 100 µM (inactive) with SW-620; > 100 µM (inactive) with U-251. In the experiment with UACC-257, the GI50 was > 100 µM (inactive).
Regarding `Cn1c(-c2cccs2)cc(-c2cccs2)c1-c1ccsc1`, the GI50 in the experiment with ACHN was > 100 µM (inactive); in the experiment on HCT-116 it was 23.3 µM (inactive); in the experiment on HCT-15 it was 32.9 µM; with HL-60 it was > 100 µM (inactive); in the experiment on HOP-62, 53 µM (inactive); with KM12, 29.5 µM (inactive). Moreover, the GI50 was > 100 µM (inactive) in the experiment on LOX IMVI; 2.03 µM (inactive) in the experiment with MCF7; > 100 µM (inactive) in the experiment with MDA-MB-231; > 100 µM (inactive) in the experiment with NCI-H23; > 100 µM (inactive) in the experiment on NCI-H460; 12.4 µM (inactive) in the experiment with OVCAR-3. The GI50 with RPMI-8226 was > 100 µM (inactive); in the experiment with SF-295, > 100 µM (inactive); in the experiment with SK-MEL-28 it was > 100 µM (inactive); in the experiment on SR it was 48.2 µM (inactive); in the experiment with SW-620, > 100 µM (inactive); with U-251, > 100 µM (inactive). The GI50 in the experiment on UACC-257 was 66.8 µM (inactive).
With `C/C=C1\CN2CCC34c5ccccc5N(C)C35OCC4(C(=O)OC)C1CC25` (stereo unspecified), the GI50 is 90.4 µM (inactive) with ACHN; 36.6 µM (inactive) with HCT-116; 23.1 µM in the experiment with HCT-15; 15.2 µM (inactive) in the experiment with HL-60; 65.8 µM (inactive) in the experiment with HOP-62; 37.1 µM (inactive) in the experiment on KM12. The GI50 in the experiment on LOX IMVI was 14 µM (inactive); with MCF7, 40.7 µM (inactive); with MDA-MB-231, > 100 µM (inactive); in the experiment with NCI-H23 it was 56.9 µM (inactive); in the experiment on NCI-H460, 25.5 µM (inactive); in the experiment on OVCAR-3 it was 76.2 µM (inactive). Also, the GI50 is 24.7 µM (inactive) with RPMI-8226; 34.4 µM (inactive) in the experiment with SF-295; 27.7 µM (inactive) in the experiment on SK-MEL-28; 26.2 µM (inactive) in the experiment on SR; 41.6 µM (inactive) in the experiment on SW-620; 93.3 µM (inactive) with U-251. In the experiment with UACC-257, the GI50 was 32.4 µM (inactive).
